The test system of one assay is scald hyperalgesia. The following applies: compared with phenylbutazone; cited from earlier work.
The next assay has as its target T1, human TLR2 (Homo sapiens, UniProt O60603).
T1 construct: host or cells: HEK 293 cells, transient transfection by electroporation
Put plainly: TLR2 expression vector experiment: HEK 293 cells with NF-kappa B reporter and pDUO-hCD14/TLR2. The format is cell-based. The following applies: HEK 293 cells expressing TLR2 and CD14; 6 hours; FIG. 10B. The method, then:
HEK 293 cells were cultured in DMEM/F12 medium supplemented with fetal bovine serum (10%) and 1% penicillin-streptomycin at 37° C., under 5% CO2. Actively growing cells were transiently transfected with the appropriate plasmid(s) using electroporation (at 150 V and one 70-ms pulse). Following electroporation, cells were plated at a density of 5×10^4 cells in 200 μl/well of culture medium. After 48 hours, agents to be tested were added to transfected cells. Six hours after addition of samples, cells were harvested and luciferase activity measured. The NF-kappa B plasmid construct (pBIIXLUC) contained two copies of NF-kappa B motif from HIV/IgK. Plasmids co-expressing human CD14 and human TLR2 (pDUO-hCD14/TLR2) were purchased from InvivoGen. Zymosan was purchased from Sigma, Staphylococcus aureus peptidoglycan from Fluka and ultra pure Salmonella minnesota LPS from List Biological Laboratories, Inc.
FIGS. 10A-10B depict that AloeEx (batch 2-5-05) acts through TLR2. HEK 293 cells (cell line with minimal TLR expression) were transiently transfected with a luciferase reporter gene construct containing two binding sites for NF-kappa B, alone (FIG. 10A), or in combination with the pDUO-hCD14/TLR2 expression plasmid (FIG. 10B). […] Luciferase activity was determined 6 hours after addition of agents.

T1 sequence (O60603 21-784): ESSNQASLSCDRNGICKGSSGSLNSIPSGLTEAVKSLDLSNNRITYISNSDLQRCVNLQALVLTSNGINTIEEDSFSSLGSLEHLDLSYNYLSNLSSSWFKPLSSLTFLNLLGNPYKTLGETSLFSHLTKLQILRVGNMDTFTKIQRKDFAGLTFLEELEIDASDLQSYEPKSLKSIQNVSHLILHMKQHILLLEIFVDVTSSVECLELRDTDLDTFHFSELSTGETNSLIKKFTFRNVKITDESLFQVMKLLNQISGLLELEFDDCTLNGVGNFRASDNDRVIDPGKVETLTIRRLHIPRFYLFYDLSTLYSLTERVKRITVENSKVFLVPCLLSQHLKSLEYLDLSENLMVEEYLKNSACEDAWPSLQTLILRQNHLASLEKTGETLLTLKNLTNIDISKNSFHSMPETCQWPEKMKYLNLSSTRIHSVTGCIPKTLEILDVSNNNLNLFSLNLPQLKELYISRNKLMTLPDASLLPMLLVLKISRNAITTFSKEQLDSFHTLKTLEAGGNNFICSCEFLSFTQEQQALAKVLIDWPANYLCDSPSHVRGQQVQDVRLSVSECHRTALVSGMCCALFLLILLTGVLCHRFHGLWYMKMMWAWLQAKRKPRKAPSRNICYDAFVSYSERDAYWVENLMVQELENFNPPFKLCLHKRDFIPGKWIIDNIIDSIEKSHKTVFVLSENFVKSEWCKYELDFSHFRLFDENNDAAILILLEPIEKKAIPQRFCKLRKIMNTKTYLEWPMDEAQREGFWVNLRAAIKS

For “O-acetylated-D-mannan [O-acetylated-D-mannan (T-2-HN)]”, the “inhibitory effect on scald hyperalgesia” value in the assay on scald hyperalgesia was “more marked inhibitory effect than phenylbutazone”.

For the substance peptidoglycan, the “activation of NF-kappa B” value at human TLR2 was “also activated NF-kappa B”.

These data come from patent publication US10543247B2, “Aloe preparation for skin enhancement” (Woodcliff Skincare Solutions, Inc., priority 2007, dated 2020).
